Assay results reported in patent US6369003B1, “Process and composition for soil improvement by reducing microbially formed ethylene in the soil” (BASF Aktiengesellschaft, priority 1994, dated 2002).

How the values were obtained:
Peas (Field Peas VNS) = assay: Peas test 2c: root nodules, root and shoot biomass, greenhouse; assay type: in vivo, Pisum sativum; conditions: 30 days after treatment; for Nodules: untreated 6.1; for Dry matter root: untreated 275; for Dry matter shoot: untreated 459
Protocol: (§1) In these tests various types of non-sterile soils were used. The cultivation of the plants was carried out under greenhouse or climatic chamber conditions. The active compounds according to the invention were applied uniformly distributed over the soil surface in an aqueous preparation after the emergence of the respective test plants. The supply of water for the plants was carrried out using the same technique, always paying attention to uniform moistness of the soil. In the case of the cultivation of legumes, defined amounts of species-specific Rhizobia were admixed to the soil. In some cases inoculation was also carried out by seed treatment. c) Peas (Field Peas VNS) were cultivated under greenhouse conditions in low N, sandy loam soil in plastic pots (750 ml) and watered from above as required. A few days after emergence the plants were thinned out to 7 plants per pot. In 5 pots in each case 25 ml each of an aqueous preparation of one concentration of 2.3.1.3 were applied by watering. 5 pots remained untreated. 30 days after treatment the following results were obtained: […]

Soybeans (A 5403) = assay: Soybeans test 3d: root nodules, root and shoot biomass, greenhouse; assay type: in vivo, Glycine max; conditions: 30 days after treatment; for Nodules: untreated 38.3; for Dry matter root: untreated 1955; for Dry matter shoot: untreated 3616
Protocol: as §1, with “treatment. d) Soybeans (A 5403)” for “treatment. c) Peas (Field Peas VNS)”, “to 3” for “to 7”

[1] = tested on: Lucerne plants (Maricopa); assay: Lucerne: root nodules and shoot biomass, greenhouse; assay type: in vivo, Medicago sativa; conditions: 25 days after treatment; for Root nodules: untreated 10.5; for Dry matter shoot: untreated 180
Protocol: (§2) In these tests various types of non-sterile soils were used. The cultivation of the plants was carried out under greenhouse or climatic chamber conditions. The active compounds according to the invention were applied uniformly distributed over the soil surface in an aqueous preparation after the emergence of the respective test plants. The supply of water for the plants was carrried out using the same technique, always paying attention to uniform moistness of the soil. In the case of the cultivation of legumes, defined amounts of species-specific Rhizobia were admixed to the soil. In some cases inoculation was also carried out by seed treatment.
Lucerne plants (Maricopa) were cultivated under greenhouse conditions in low N, sandy loam soil in plastic pots (750 ml) and watered from above as required. A few days after emergence the plants were thinned out to 3 plants per pot.
In 5 pots in each case 25 ml of an aqueous preparation of one concentration of 2.3.1.3 were applied by watering. 5 pots remained untreated.
(§3) 25 days after treatment the following results were obtained: […]

[2] = tested on: Soybean plants (Delta Pine 415); assay: Soybeans test 3b: root nodules, greenhouse; assay type: in vivo, Glycine max; conditions: untreated 47
Protocol: as §2
a) Soybean plants (Delta Pine 415) were cultivated under greenhouse conditions in low N Limburgerhof soil in plastic pots (500 ml) and watered from above as required. A few days after emergence the plants were thinned out to 5 plants per pot.
In 8 pots in each case per test member an aqueous active compound solution of 2.3.1.3 was applied by watering. 16 pots remained untreated in each case.
b) Test procedure as in 3 a) active compound 2.3.1.3

rape (Petranova) = assay: Promotion of shoot growth of rape, greenhouse; assay type: in vivo; conditions: applied by watering 10 days after sowing; 3 weeks after treatment
Protocol: as §2
(§4) Wheat (Ralle) and rape (Petranova) plants were cultured under greenhouse conditions in low N Limburgerhof soil in plastic pots (500 ml) and watered from above as required. The water content of the soil here was about 80% of the maximum water capacity. A few days after emergence the plants were thinned out to 40 plants per pot.
(§5) 10 days after sowing aqueous preparations of 2.3.1.3 were applied by watering to 8 pots per test series in each case. 16 pots in each case remained untreated. 3 weeks after treatment the fresh shoot weight of the plants was determined.

Wheat (Ralle) = assay: Promotion of shoot growth of wheat, greenhouse; assay type: in vivo; conditions: applied by watering 10 days after sowing; 3 weeks after treatment
Protocol: as §2, §4, §5

[3] = tested on: Bean plants (Small Seeded Bell); assay: Field beans: root nodules, root and shoot biomass, greenhouse; assay type: in vivo, Vicia faba; conditions: 25 days after treatment; for Nodules: untreated 30.9; for Dry matter root: untreated 1090; for Dry matter shoot: untreated 2310
Protocol: as §2
Bean plants (Small Seeded Bell) were cultivated under greenhouse conditions in low N, sandy loam soil in plastic pots (750 ml) and watered from above as required. A few days after emergence the plants were thinned out to 3 plants per pot.
In 5 pots in each case 25 ml each of an aqueous preparation of one concentration of 2.3.1.3 were applied by watering. 5 pots remained untreated.
as §3

SMILES: COC(=O)COC(=O)CON=C(C)C [active compound 2.3.1.3]
- Nodules (Peas (Field Peas VNS); 3 g of a.s./ha): 41.5 number/plant
- Dry matter root (Peas (Field Peas VNS); 3 g of a.s./ha): 849 mg/plant
- Dry matter shoot (Peas (Field Peas VNS); 3 g of a.s./ha): 1064 mg/plant
- Nodules (Peas (Field Peas VNS); 30 g of a.s./ha): 39.4 number/plant
- Dry matter root (Peas (Field Peas VNS); 30 g of a.s./ha): 704 mg/plant
- Dry matter shoot (Peas (Field Peas VNS); 30 g of a.s./ha): 795 mg/plant
- Nodules (Peas (Field Peas VNS); 300 g of a.s./ha): 56.1 number/plant
- Dry matter root (Peas (Field Peas VNS); 300 g of a.s./ha): 945 mg/plant
- Dry matter shoot (Peas (Field Peas VNS); 300 g of a.s./ha): 1209 mg/plant
- Nodules (Soybeans (A 5403); 3 g of a.s./ha): 47.6 number/plant
- Dry matter root (Soybeans (A 5403); 3 g of a.s./ha): 2806 mg/plant
- Dry matter shoot (Soybeans (A 5403); 3 g of a.s./ha): 4020 mg/plant
- Nodules (Soybeans (A 5403); 300 g of a.s./ha): 54.9 number/plant
- Dry matter root (Soybeans (A 5403); 300 g of a.s./ha): 1326 mg/plant
- Dry matter shoot (Soybeans (A 5403); 300 g of a.s./ha): 4117 mg/plant
- Root nodules ([1]; 30 g of a.s./ha): 10.7 number/plant
- Dry matter shoot ([1]; 30 g of a.s./ha): 300 mg/plant
- Root nodules ([1]; 300 g of a.s./ha): 10.3 number/plant
- Dry matter shoot ([1]; 300 g of a.s./ha): 240 mg/plant
- Nodules ([2]; 0.003 mg of a.s./pot; procedure as in 3 a)): 72 number/pot
- Nodules ([2]; 0.030 mg of a.s./pot; procedure as in 3 a)): 83 number/pot
- Nodules ([2]; 0.300 mg of a.s./pot; procedure as in 3 a)): 69 number/pot
- shoot growth (fresh shoot weight) (rape (Petranova)): shoot growth was promoted in nearly all cases
- shoot growth (fresh shoot weight) (Wheat (Ralle)): shoot growth was promoted in nearly all cases
- Nodules ([3]; 30 g of a.s./ha): 34.3 number/plant
- Dry matter root ([3]; 30 g of a.s./ha): 1380 mg/plant
- Dry matter shoot ([3]; 30 g of a.s./ha): 2880 mg/plant
- Nodules ([3]; 300 g of a.s./ha): 50.7 number/plant
- Dry matter root ([3]; 300 g of a.s./ha): 1470 mg/plant
- Dry matter shoot ([3]; 300 g of a.s./ha): 3940 mg/plant
- Nodules ([3]; 3000 g of a.s./ha): 48.2 number/plant
- Dry matter root ([3]; 3000 g of a.s./ha): 960 mg/plant
- Dry matter shoot ([3]; 3000 g of a.s./ha): 2450 mg/plant
